“Also recorded” adds a separate entry of the source.
Assays:
[1] = test system: LDHA; assay: Wet lab validation of LDHA expression in HepG2 cells; type: cell-based; details: HepG2, 50 uM or 100 uM CoQ10, 24 or 48 hours
Protocol: The cell model comprising the above-mentioned cells, wherein the cells were exposed to each condition described above, was additionally interrogated by exposing the cells to an environmental perturbation by treating with Coenzyme Q10. Specifically, the cells were treated with Coenzyme Q10 at 0, 50 μM, or 100 μM.
Cell samples as well as media samples for each cell line with each condition and each Coenzyme Q10 treatment were collected at various times following treatment, including after 24 hours and 48 hours of treatment.
Protein accession number P00338 is LDHA. Wet lab validation of proteomics data were performed for LDHA expression in HepG2 cells (see FIG. 20).

[2] = test system: HUVEC cells; assay: Endothelial tube formation in 3-D MATRIGEL; type: cell-based, Human; details: for endothelial tube formation: 3-D matrigel
Protocol: Methods: Human umbilical vein endothelial cell (HUVEC) fate decisions that modulate the angiogenic phenotype were examined in the presence of 100 or 1500 μM CoQ10 or excipient and compared to untreated control cells. Endothelial cell fate assays for apoptosis, proliferation, migration and 3-D tube formation within MATRIGEL® were performed.
To assess the potential effects of CoQ10 on endothelial migration, HUVEC migration was examined 5 hours post-cell clearance, in an endothelial scratch assay. […] In order to determine if the CoQ10 anti-tumor activity is due to effects on endothelial sprouting angiogenesis, we examined endothelial tube formation in 3-D MATRIGEL® cultures over time. Addition of excipient in both the gel and overlying media impaired tube formation compared to control.
CoQ10 impairs endothelial tube formation: Endothelial cells growing in 3-D matrigel form tubes over time. Differential effects of 100 μM and 1500 μM CoQ10 on tube formation were observed. […] Images shown in FIG. 56 were taken at 72 hours.

[3] = test system: Bcl2; details: normal fibroblast, co-administration of CoQ-10 and VEGF; cited from earlier work
[4] = test system: HUVEC cells; assay: Nitric oxide (NO) generation in HUVEC under normoxia and hypoxia; type: cell-based, Human; details: subconfluent and confluent HUVEC, normoxic or hypoxic, 0, 100 or 1500 μM CoQ10
Protocol: (§1) The response of HUVEC cells to normoxia and hypoxia in the presence of absence of CoQ10 was assessed. Specifically, HUVEC cells were grown in subconfluent and confluent cultures under normoxic or hypoxic conditions as described herein. The cells were also exposed to 0, 100, or 1500 μM CoQ10. Nitric oxide (NO) and reactive oxygen species (ROS) levels were determined using methods provided herein.

[5] = test system: TAZ; assay: Western blotting of TAZ in cardiomyocytes; type: cell-based, Human; details: hyperglycemia conditioned cardiomyocytes, diabetic drug plus Coenzyme Q10 (T+R)
Protocol: Human cardiomyocytes were subject to conditions simulating an diabetic environment experienced by the disease-relevant cells in vivo. Specifically, the cells were exposed to hyperglycemic conditions and hyperlipidemia conditions. The hyperglycemic condition was induced by culturing cells in media containing 22 mM glucose. The hyperlipidemia condition was induced by culturing the cells in media containing 1 mM L-carnitine, 0.7 mM Oleic acid and 0.7 mM Linoleic acid.
The cell model comprising the above-mentioned cells, wherein the cells were exposed to each condition described above, was additionally “interrogated” by exposing the cells to an “environmental perturbation” by treating with a diabetic drug (T) which is known to cause cardiotoxicity, a rescue molecule (R) or both the diabetic drug and the rescue molecule (T+R). Specifically, the cells were treated with diabetic drug; or treated with rescue molecule Coenzyme Q10 at 0, 50 µM, or 100 µM; or treated with both of the diabetic drug and the rescue molecule Coenzyme Q10.
Protein expression levels of GPAT1 and TAZ for each condition and each treatment were tested with western blotting.

[6] = test system: HUVEC cells; assay: HUVEC bioenergetics (Seahorse assays); type: cell-based, Human; details: sub-confluent HUVEC cultures, CoQ10 10, 100, 1500 μM
Protocol: The bioenergetics of HUVEC cells were assessed in the presence of various concentrations of CoQ10. Specifically, HUVEC cells were grown in subconfluent or confluent conditions in the absence or presence of CoQ10 (10, 100, 1500 μM). Oxygen consumption rates (OCR), both total and mitochondrial, ATP production, and Extra Cellular Acidification Rate (ECAR) were assessed using Seahorse assays.

[7] = test system: HUVEC cells; assay: Reactive oxygen species (ROS) generation in HUVEC under normoxia and hypoxia; type: cell-based, Human; details: subconfluent and confluent HUVEC, normoxic or hypoxic, 0, 100 or 1500 μM CoQ10
Protocol: as §1

Compound: COC1=C(OC)C(=O)C(C/C=C(\C)CC/C=C(\C)CC/C=C(\C)CC/C=C(\C)CC/C=C(\C)CC/C=C(\C)CC/C=C(\C)CC/C=C(\C)CC/C=C(\C)CCC=C(C)C)=C(C)C1=O [CoQ10, Coenzyme Q10]
- LDHA expression levels [1]: decreased
- HUVEC tube formation ([2]; 1500 μM CoQ10, compared to both excipient and control untreated cells, 24 hours up to 96 hours): further impaired
- endothelial tube formation ([2]; 100 μM CoQ10): modest effect
- endothelial tube formation ([2]; 1500 μM CoQ10, images at 72 hours): Impaired cell to cell association and breakdown of early tube structure was significant; also recorded: dramatic disruption of endothelial tube formation
- tube formation in 3-D MATRIGEL tube formation assays ([2]; concentration not stated (summary)): impairs
- levels of Bcl2 [3]: no effect
- generation of nitric oxide (NO) [4]: differential dose dependent generation
- protein expression level of TAZ [5]: normalized
- mitochondrial OCR [6]: reverts mitochondrial OCR to confluent level OCR
- generation of reactive oxygen species (ROS) [7]: differential dose dependent generation

Source: patent US12437835B2, “Interrogatory cell-based assays and uses thereof” (Berg LLC, priority 2012, dated 2025)
